Reference: US10045978B2 (AB SCIENCE, priority 2010, dated 2018)

System: patients with indolent forms of mastocytosis with handicap, D816V absent in at least one infiltrated organ
Assay: Example 1 phase 2a study, response assessment
Format: in vivo, human
Parameters: Hamilton rating Δ Mean ± SD / QLQ-C30 Symptom Δ Mean ± SD / QLQ-C30 Global Health Δ Mean ± SD / AFIRMM Δ Mean ± SD / Hamilton rating ΔMean ± SD / QLQC30 Symptom ΔMean ± SD / QLQC30 Global Health ΔMean ± SD / AFIRMM ΔMean ± SD: scale not given here
Conditions: for AFIRMM ΔMean ± SD / Flushes per day ΔMean ± SD / Hamilton rating ΔMean ± SD / Micturitions per day ΔMean ± SD / OPA Score Change: (2, 3, 4) to (0, 1) / OPA Score No change / Pruritus ΔMean ± SD / QLQC30 Functional ΔMean ± SD / QLQC30 Global Health ΔMean ± SD / QLQC30 Symptom ΔMean ± SD / Stools per day ΔMean ± SD: extension-phase cohort
Protocol: Eligible patients were aged >18 years, had previously documented indolent systemic, smoldering systemic or cutaneous mastocytosis as per the WHO classification with associated disability as the result of mast cell released mediators and had not responded to usual symptomatic treatments for more the 6 months. […] A single occurrence of this criterion was deemed sufficient for inclusion and so no systematic examination of multiple organs was carried out specifically for this study.
Patients were classified as having a handicap if after appropriate symptomatic treatments they fulfilled at least one of the following a priori criteria: number of flushes/day ≥1; pruritus score ≥6; number of stools ≥4/day; micturition frequency ≥8/day; Hamilton rating for depression ≥10; or EORTC quality-of-life questionnaire (QLQ-C30) symptom score, functional score, and global health status of >0. Patients were excluded if they experienced inadequate organ function defined via blood test levels, or an Eastern Cooperative Oncology Group performance status >2. Other exclusion criteria included: life expectancy <6 months, severe or uncontrolled medical disease, and patients who were pregnant or nursing.
In accordance to the AFIRMM study (Hermine O, et al., 2008, PLoS ONE. 3:e2266), evaluation of treatment response was based upon the change of clinical symptoms associated with a patient's handicaps at week 12 (W12) relative to baseline. Primary endpoints were daily frequency of flushes; pruritus score; and Hamilton rating for depression, as well as, daily stool and micturition frequencies; QLQ-C30 global health status, functional, and symptom scores. […] For those patients entering the extension phase, assessments were performed every 4 weeks for the first 3 months of extension, and every 12 weeks thereafter. Secondary endpoints included the W12 assessment of AFIRMM score (a validated questionnaire assessing the self-perceived severity of mastocytosis) (Hermine O, et al., 2008, PLoS ONE. 3:e2266); overall patient assessment (OPA) score; tryptase levels; and change in organ mast cell infiltration. Determination of D816V mutation and serum tryptase levels was conducted following procedures described previously (Hermine O, et al., 2008, PLoS ONE. 3:e2266). Overall clinical response analysis at W12 defined a responder as having an improvement of ≥50% in baseline handicap of a key response endpoint (Hamilton rating, flushes, or pruritus) without deterioration or emergence of handicap. Any patient with deterioration of ≥50% in any handicap, and/or with emergence of a new handicap with an increase of ≥50% from baseline was considered as worsening. Any patient who discontinued the study before W12 was considered a non responder. Discrimination between dose regimens was investigated by analyses of the ‘time to first response’, according to the initial dosage, and ‘dose at time of first response’ in key response endpoints.
Response analysis was performed on subgroups of the ITT population according to a patient's handicap at baseline and for whom response was evaluated at W12; referred to hereafter as the handicap-related population. No data imputation was implemented. The per protocol (PP) population was defined as a subset of a given handicap-related population, which in addition had presented no major protocol deviations. Summary response data are presented using descriptive statistics with mean improvement compared to baseline in each handicap cohort, regardless of disease classification. The appropriate Wilcoxon or Fisher tests were used for group comparison of baseline disease, demographic characteristics between dose level groups and response relative to baseline. Subpopulation analysis was also conducted according to initial c-Kit status.

Cc1ccc(NC(=O)c2ccc(CN3CCN(C)CC3)cc2)cc1Nc1nc(-c2cccnc2)cs1 [masitinib, 4-(4-methylpiperazin-1-ylmethyl)-N-[4-methyl-3-(4-pyridin-3ylthiazol-2-ylamino)phenyl]benzamide]
first response events: AFIRMM score (at 6.0 mg/kg/day): 5
first response events: Cumulative Frequency (at 6.0 mg/kg/day): 96%
first response events: Flush (at 6.0 mg/kg/day): 4
first response events: Hamilton (at 6.0 mg/kg/day): 4
first response events: Micturition (at 6.0 mg/kg/day): 1
first response events: OPA score (at 6.0 mg/kg/day): 4
first response events: Pruritus (at 6.0 mg/kg/day): 4
first response events: QLQ30 Functional (at 6.0 mg/kg/day): 1
first response events: QLQ30 Global (at 6.0 mg/kg/day): 2
first response events: QLQ30 Symptom (at 6.0 mg/kg/day): 1
first response events: Stool (at 6.0 mg/kg/day): 2
first response events: Total events (at 6.0 mg/kg/day): 28
first response events: Cumulative Frequency (at 7.5 mg/kg/day): 100%
first response events: Flush (at 7.5 mg/kg/day): 1
first response events: OPA score (at 7.5 mg/kg/day): 1
first response events: QLQ30 Symptom (at 7.5 mg/kg/day): 1
first response events: Total events (at 7.5 mg/kg/day): 3
AFIRMM ΔMean ± SD (W4): −44.5 ± 51.6
Flushes per day ΔMean ± SD (W4): −1.1 ± 1.8
Hamilton rating ΔMean ± SD (W4): −5.9 ± 3.2
Micturitions per day ΔMean ± SD (W4): −2.5 ± 3.3
OPA Score Change: (2, 3, 4) to (0, 1) (W4): 3 (18%)
OPA Score No change (W4): 14 (82%)
Pruritus ΔMean ± SD (W4): −2.8 ± 3.7
QLQC30 Functional ΔMean ± SD (W4): 8.7 ± 18.2
QLQC30 Global Health ΔMean ± SD (W4): 8.3 ± 25.5
QLQC30 Symptom ΔMean ± SD (W4): −4.1 ± 7.8
Stools per day ΔMean ± SD (W4): −4.3 ± 2.6
AFIRMM ΔMean ± SD (W12): −61.9 ± 45.9
Flushes per day ΔMean ± SD (W12): −1.6 ± 1.5
Hamilton rating ΔMean ± SD (W12): −4.6 ± 4.9
Micturitions per day ΔMean ± SD (W12): −5.4 ± 2.6
OPA Score Change: (2, 3, 4) to (0, 1) (W12): 3 (20%)
OPA Score No change (W12): 16 (80%)
Pruritus ΔMean ± SD (W12): −3.3 ± 3.0
QLQC30 Functional ΔMean ± SD (W12): 11.6 ± 16.4
QLQC30 Global Health ΔMean ± SD (W12): 16.1 ± 26.4
QLQC30 Symptom ΔMean ± SD (W12): −7.0 ± 15.2
Stools per day ΔMean ± SD (W12): −4.2 ± 3.0
AFIRMM ΔMean ± SD (W24): −66.0 ± 29.9
Flushes per day ΔMean ± SD (W24): −1.9 ± 3.1
Hamilton rating ΔMean ± SD (W24): −2.8 ± 9.2
Micturitions per day ΔMean ± SD (W24): −4.3 ± 5.9
OPA Score Change: (2, 3, 4) to (0, 1) (W24): 0 (0%)
OPA Score No change (W24): 3 (100%)
Pruritus ΔMean ± SD (W24): −5.1 ± 4.7
QLQC30 Functional ΔMean ± SD (W24): 15.3 ± 10.6
QLQC30 Global Health ΔMean ± SD (W24): 18.8 ± 27.5
QLQC30 Symptom ΔMean ± SD (W24): −19.9 ± 8.2
Stools per day ΔMean ± SD (W24): −2.5 ± 2.1
AFIRMM ΔMean ± SD (W36): −62.4 ± 31.8
Flushes per day ΔMean ± SD (W36): −2.1 ± 3.5
Hamilton rating ΔMean ± SD (W36): −10.3 ± 5.1
Micturitions per day ΔMean ± SD (W36): −6.5 ± 6.4
OPA Score Change: (2, 3, 4) to (0, 1) (W36): 1 (20%)
OPA Score No change (W36): 4 (80%)
Pruritus ΔMean ± SD (W36): −6.9 ± 3.5
QLQC30 Functional ΔMean ± SD (W36): 5.8 ± 16.7
QLQC30 Global Health ΔMean ± SD (W36): 21.7 ± 26.1
QLQC30 Symptom ΔMean ± SD (W36): −14.4 ± 6.5
Stools per day ΔMean ± SD (W36): −0.7 ± 3.2
AFIRMM ΔMean ± SD (W48): −64.3 ± 48.5
Flushes per day ΔMean ± SD (W48): −2.8 ± 2.9
Hamilton rating ΔMean ± SD (W48): −11.5 ± 6.4
Micturitions per day ΔMean ± SD (W48): −7.0 ± 2.8
OPA Score Change: (2, 3, 4) to (0, 1) (W48): 2 (33%)
OPA Score No change (W48): 4 (67%)
Pruritus ΔMean ± SD (W48): −5.2 ± 4.4
QLQC30 Functional ΔMean ± SD (W48): 0.7 ± 16.7
QLQC30 Global Health ΔMean ± SD (W48): 12.5 ± 14.7
QLQC30 Symptom ΔMean ± SD (W48): −10.3 ± 6.4
Stools per day ΔMean ± SD (W48): −2.0 ± 0.0
AFIRMM ΔMean ± SD (W60): −61.1 ± 32.9
Flushes per day ΔMean ± SD (W60): −2.3 ± 2.9
Hamilton rating ΔMean ± SD (W60): −8.3 ± 7.5
Micturitions per day ΔMean ± SD (W60): −6.0 ± 4.2
OPA Score Change: (2, 3, 4) to (0, 1) (W60): 4 (44%)
OPA Score No change (W60): 5 (56%)
Pruritus ΔMean ± SD (W60): −4.6 ± 4.3
QLQC30 Functional ΔMean ± SD (W60): 11.6 ± 11.2
QLQC30 Global Health ΔMean ± SD (W60): 23.1 ± 25.3
QLQC30 Symptom ΔMean ± SD (W60): −12.9 ± 8.3
Stools per day ΔMean ± SD (W60): −4.7 ± 2.9
